As usually defined, the Ki is a dissociation constant, usually derived from enzyme kinetics or from competition with a known ligand.

For 40 compounds, Ki results are on record in BindingDB's records for patent WO2022021841 (Sichuan University, 2022).

The structures appear in SMILES notation.

In the test the target is Replicase polyprotein 1ab (Severe acute respiratory syndrome coronavirus 2, UniProt P0DTD1). Kind of test: SARS-CoV-2 Coronavirus 3C Protease FRET Assay. Here is the method:
IC50 values were calculated by fitting a curve of Vmax to experimental values with the controls (DMSO) as the top and bottom limits of the curve. […] GraphPad Prism is the analysis tool for all measurements.
For `COC(=O)C[C@H](NC(=O)[C@@H]1CCCN1C(=O)c1cc2ccccc2[nH]1)C(=O)CF` [WO2022021841, 1], the affinity, expressed as Ki, was 1100 nM. With `COC(=O)C[C@H](NC(=O)[C@@H]1[C@@H]2[C@H](CN1C(=O)/C=C/c1ccccc1)C2(C)C)C(=O)CF` [WO2022021841, 2] the figure was 110 nM. `O=C(N[C@@H](C[C@@H]1CCNC1=O)C(=O)CF)C1[C@H]2CCC[C@H]2CN1C(=O)COc1ccc(Cl)cc1Cl` (stereo not given in full) [WO2022021841, 3] registered a Ki of 18 nM. On to `CC1CNC(=O)[C@@H]1C[C@H](NC(=O)C1[C@H]2CCC[C@H]2CN1C(=O)COc1ccc(Cl)cc1Cl)C(=O)CF` (stereo not given in full) [WO2022021841, 4], for which the Ki worked out at 12 nM. With `CC1CNC(=O)[C@@H]1C[C@H](NC(=O)C1[C@H]2CCC[C@H]2CN1C(=O)COc1cccc(-c2ccccc2)c1)C(=O)CF` (stereo not given in full) [WO2022021841, 5] the figure was 11 nM; with `CC1CNC(=O)[C@@H]1C[C@H](NC(=O)C1[C@@H]2[C@H](CN1C(=O)COc1ccc(Cl)cc1Cl)C2(C)C)C(=O)CF` (stereo not given in full) [WO2022021841, 6], 9 nM; with `CC1CNC(=O)[C@@H]1C[C@H](NC(=O)C1[C@@H]2[C@H](CN1C(=O)COc1ccc(Cl)c(Cl)c1)C2(C)C)C(=O)CF` (stereo not given in full) [WO2022021841, 7], 15 nM. With `CC1CNC(=O)[C@@H]1C[C@H](NC(=O)C1[C@@H]2[C@H](CN1C(=O)COc1cccc(-c3ccc(Cl)cc3)c1)C2(C)C)C(=O)CF` (stereo not given in full) [WO2022021841, 8] the figure was 17 nM. Turning to `CC1(C)[C@@H]2C(C(=O)N[C@H](C=O)Cc3ccccc3)N(C(=O)c3ccc4ccccc4n3)C[C@@H]21` (stereo not given in full) [WO2022021841, 9], the affinity corresponds to a Ki of 24200 nM. Compound `CC1(C)[C@@H]2C(C(=O)N[C@H](C=O)Cc3ccccc3)N(C(=O)c3ccc4ccccc4c3)C[C@@H]21` (stereo not given in full) [WO2022021841, 10] displayed a Ki of 585 nM. To `CCC[C@@H](NC(=O)C1[C@@H]2CCC[C@H]2CN1C(=O)c1cc2ccccc2[nH]1)C(=O)C(=O)NC1CC1` (stereo not given in full) [WO2022021841, 11] belongs 960 nM. Compound `CCC[C@@H](NC(=O)C1[C@@H]2CCC[C@H]2CN1C(=O)[C@@H](c1ccccc1)C(C)C)C(=O)C(=O)NC1CC1` (stereo not given in full) [WO2022021841, 12] showed a Ki of 16900 nM. Take `CCC[C@@H](NC(=O)C1C2[C@H](CN1C(=O)[C@@H](c1ccccc1)C(C)C)C2(C)C)C(=O)C(=O)NC1CC1` (stereo not given in full) [WO2022021841, 13]: the Ki came to 82700 nM. With `CC1(C)[C@@H]2C(C(=O)N[C@H](C=O)C[C@@H]3CCNC3=O)N(C(=O)c3ccc4ccccc4c3)C[C@@H]21` (stereo not given in full) [WO2022021841, 16] the figure was 343 nM; with `C[C@H](OCc1ccccc1)C(=O)N1C[C@@H]2CCC[C@@H]2C1C(=O)N[C@H](C=O)C[C@@H]1CCNC1=O` (stereo not given in full) [WO2022021841, 18], 28 nM; with `CC1(C)[C@@H]2C(C(=O)N[C@H](C=O)C[C@@H]3CCNC3=O)N(C(=O)COc3ccc4c(c3)OCO4)C[C@@H]21` (stereo not given in full) [WO2022021841, 21], 73 nM.

As to `O=C[C@H](C[C@@H]1CCNC1=O)NC(=O)C1[C@@H]2CCC[C@H]2CN1C(=O)COc1ccc2c(c1)OCCO2` (stereo not given in full) [WO2022021841, 22], the Ki was determined as 93 nM. For `COc1cccc(OCC(=O)N2C[C@H]3[C@@H](C2C(=O)N[C@H](C=O)C[C@@H]2CCNC2=O)C3(C)C)c1` (stereo not given in full) [WO2022021841, 23], affinity was put at a Ki of 37 nM.

For the compound `O=C[C@H](C[C@@H]1CCNC1=O)NC(=O)C1[C@@H]2CCC[C@H]2CN1C(=O)CCc1ccc(F)c(F)c1` (stereo not given in full) [WO2022021841, 25], affinity was put at a Ki of 16 nM. This Ki lies about 2.3-fold lower than the previous one. To `COc1ccc(OC(C)C(=O)N2C[C@@H]3CCC[C@H]3C2C(=O)N[C@H](C=O)C[C@@H]2CCNC2=O)cc1` (stereo not given in full) [WO2022021841, 29] belongs 78 nM. With `COc1ccc(OCC(=O)N2C[C@H]3[C@@H](C2C(=O)N[C@H](C=O)C[C@@H]2CCNC2=O)C3(C)C)cc1` (stereo not given in full) [WO2022021841, 32] the figure was 36 nM; with `COc1cc(OCC(=O)N2C[C@H]3[C@@H](C2C(=O)N[C@H](C=O)C[C@@H]2CCNC2=O)C3(C)C)cc(OC)c1OC` (stereo not given in full) [WO2022021841, 35], 51 nM; with `CC(C)(Oc1ccc(Cl)cc1Cl)C(=O)N1Cc2ccccc2CC1C(=O)N[C@H](C=O)C[C@@H]1CCNC1=O` (stereo not given in full) [WO2022021841, 38], 91 nM.

For the compound `CC(C)(Oc1ccc(Cl)cc1Cl)C(=O)N1C[C@@H]2CCC[C@H]2C1C(=O)N[C@H](C=O)C[C@@H]1CCNC1=O` (stereo not given in full) [WO2022021841, 39], the affinity corresponds to a Ki of 33 nM. To `CC1CNC(=O)[C@@H]1C[C@@H](C=O)NC(=O)C1[C@@H]2CCC[C@H]2CN1C(=O)COc1ccc(Cl)cc1Cl` (stereo not given in full) [WO2022021841, 40] belongs 17 nM. In the case of `CC1CNC(=O)[C@@H]1C[C@@H](C=O)NC(=O)C1[C@@H]2CCC[C@H]2CN1C(=O)C(C)(C)Oc1ccc(Cl)cc1Cl` (stereo not given in full) [WO2022021841, 41], the inhibition constant Ki was found to be 56 nM. To `O=C(N[C@@H](C[C@@H]1CCNC1=O)C(=O)CCl)C1[C@@H]2CCC[C@H]2CN1C(=O)COc1ccc(Cl)cc1Cl` (stereo not given in full) [WO2022021841, 42] belongs 19 nM; to `O=C[C@H](C[C@@H]1CCNC1=O)NC(=O)C1[C@@H]2CCC[C@H]2CN1C(=O)COc1cccc(-c2ccccc2)c1` (stereo not given in full) [WO2022021841, 46], 10 nM; to `CC1CNC(=O)[C@@H]1C[C@@H](C=O)NC(=O)C1[C@@H]2CCC[C@H]2CN1C(=O)COc1cccc(-c2ccccc2)c1` (stereo not given in full) [WO2022021841, 47], 12 nM.

Consider `CC1CNC(=O)[C@@H]1C[C@@H](C=O)NC(=O)C1[C@@H]2[C@H](CN1C(=O)COc1ccc(Cl)c(Cl)c1)C2(C)C` (stereo not given in full) [WO2022021841, 48], for which affinity was put at a Ki of 11 nM. With `CC1CNC(=O)[C@@H]1C[C@@H](C=O)NC(=O)C1[C@@H]2[C@H](CN1C(=O)COc1cccc(-c3ccc(Cl)cc3)c1)C2(C)C` (stereo not given in full) [WO2022021841, 49] the figure was 22 nM. With `CC(C)(C)NC(=O)C(=O)[C@H](C[C@@H]1CCNC1=O)NC(=O)C1[C@@H]2CCC[C@H]2CN1C(=O)COc1ccc(Cl)cc1Cl` (stereo not given in full) [WO2022021841, 50] the figure was 1190 nM; with `O=C(NCc1ccccc1)C(=O)[C@H](C[C@@H]1CCNC1=O)NC(=O)C1[C@@H]2CCC[C@H]2CN1C(=O)COc1ccc(Cl)cc1Cl` (stereo not given in full) [WO2022021841, 51], 50400 nM. The compound `O=C(NC1CC1)C(=O)[C@H](C[C@@H]1CCNC1=O)NC(=O)C1[C@@H]2CCC[C@H]2CN1C(=O)COc1ccc(Cl)cc1Cl` (stereo not given in full) [WO2022021841, 52] had a Ki of 875 nM.

Consider `O=C(NCc1ccccn1)C(=O)[C@H](C[C@@H]1CCNC1=O)NC(=O)C1[C@@H]2CCC[C@H]2CN1C(=O)COc1ccc(Cl)cc1Cl` (stereo not given in full) [WO2022021841, 53], for which affinity was put at a Ki of 63100 nM.

For `CC1(C)CNC(=O)[C@@H]1C[C@@H](C=O)NC(=O)C1[C@@H]2CCC[C@H]2CN1C(=O)COc1ccc(Cl)cc1Cl` (stereo not given in full) [WO2022021841, 54], the affinity, expressed as Ki, was 24 nM.

`CC1(C)CNC(=O)[C@@H]1C[C@@H](C=O)NC(=O)C1[C@H]2[C@H](CN1C(=O)COc1ccc(Cl)cc1Cl)C2(C)C` (stereo not given in full) [WO2022021841, 55]: the Ki came out at 31 nM. With `CC1(C)[C@H]2CN(C(=O)COc3ccc(Cl)cc3Cl)C(C(=O)N[C@H](C=O)C[C@H]3C(=O)NCC3(F)F)[C@@H]21` (stereo not given in full) [WO2022021841, 56] the figure was 33 nM.

The compound `COc1ccc(CNC(=O)N2C[C@@H]3CCC[C@H]3C2C(=O)N[C@H](C=O)C[C@@H]2CCNC2=O)cc1` (stereo not given in full) [WO2022021841, 57] came in with a Ki of 26 nM. With `O=C[C@H](C[C@@H]1CCNC1=O)NC(=O)C1[C@@H]2CCC[C@H]2CN1C(=S)NCc1ccc(F)cc1` (stereo not given in full) [WO2022021841, 58] the figure was 30 nM.
